Reference: patent US20250339531A1, “DUX4 POLYPEPTIDES AND NUCLEIC ACIDS FOR TREATING INFLAMMATORY AND AUTOIMMUNE CONDITIONS” (Fred Hutchinson Cancer Center, priority 2021, published 2025)

System: proteins that co-immunoprecipitated with DUX4-CTD constructs expressed in MB135 myoblasts
Experiment: LC-MS of proteins co-immunoprecipitated with DUX4-CTD (Table 1) and western validation
Format: binding, human
Parameters: key to 4. mL1dL2 + Dox + IFNG / 4. + IFNG mix / 4. longCTD + Dox + IFNG / 3. + IFNg + Dox longCTD / 3. + Dox longCTD / 3. + IFNG longCTD: peptide-spectrum matches (PSMs) per protein
Conditions: for 4. longCTD + Dox + IFNG: LC-MS counts of the listed protein co-immunoprecipitated with DUX4-CTD bait longCTD; for 3. + Dox longCTD / 3. + IFNG longCTD / 3. + IFNg + Dox longCTD: bait longCTD; for 3. + Dox longCTD: experiment 3, Dox only; for 3. + IFNG longCTD: experiment 3, IFNG only, no doxycycline (bait at background level); for 3. + IFNg + Dox longCTD: experiment 3, IFNg + Dox; for SUM of PSMS: sum over all samples
Description: As an unbiased method to identify proteins that interact with the C-terminal region of DUX4, liquid chromatography mass spectroscopy (LC-MS) was used to identify proteins that co-immunoprecipitated with DUX4-CTD constructs expressed in MB135 myoblasts. In the first experiment, MB135iDUX4-CTD cells were used, either untreated, treated with doxycycline alone, or with both doxycycline and IFNG. In the second experiment, MB135iDUX4-CTD and MB135iDUX4mL1dL2 cells were used, both treated with doxycycline and IFNG, compared to these two cell lines untreated and combined as a control. Proteins with a minimum of 2 peptide spectrum matches (PSMs) in at least one sample that were identified in both experiments were assigned to one of ten categories (see Methods) to separate candidate interactors from other categories that might be co-purified because of obligate interactions (e.g., proteasome or ribosome) or might be less likely to be physiologically relevant (e.g., cytoskeletal proteins). Candidate interactors were then ranked based on the total PSMs for that protein across all samples.
Centrifugation at 2500 rcf at 4° C. for 5 min pelleted the nuclei, supernatant was discarded, and nuclei resuspended in 1 mL IP buffer pH 7.4 (25 mM Tris-HCl pH 7.5, 175 mM NaCl, 1 mM EDTA, 0.2% NP-40, 5% glycerol) and incubated for 1 hour at 4° C. with rotation then spun at 21000 rcf for 10 minutes at 4° C. to pellet insoluble debris. Protein concentration was determined using the Pierce BCA Protein Assay Kit (ThermoFisher, 23225). An equivalent amount of protein per sample was pre-cleared with Dynabeads Protein G (Invitrogen) bound to mouse IgG (Abcam #131368) for 1 hour at 4° C. with rotation. FLAG-tagged constructs were then immunoprecipitated with Dynabeads Protein G beads coupled to mouse anti-FLAG M2 mAb (Sigma F3165) for 3 hours at 4° C. with rotation. Beads were washed 3× with 1 mL IP buffer and eluted by adding 2× NuPage LDS Sample Buffer (Thermo Fisher, diluted from 4× with PBS) to the beads and heating for 10 minutes at 70° C.
For LC-MS, anti-FLAG immunoprecipitation was performed with beads cross-linked to the anti-FLAG antibody and the proteins competitively eluted with FLAG peptide. Eluted protein samples were electrophoresed into a NuPage 4-12% Bis-Tris gel, excised, and processed by the Fred Hutchinson Cancer Research Center Proteomics Core. Samples were reduced, alkylated, digested with trypsin, desalted, and run on the Orbitrap Eclipse Tribid Mass Spectrometer (Thermo Fisher). Proteomics data were analyzed using Proteome Discoverer 2.4 against a Uniprot human database that included common contaminants using Sequest HT and Percolator for scoring. […] Proteins that were identified in at least one sample from both independent experiments with at least 2 PSMs in one sample were assigned to one of ten categories: 1, candidates; 2, cytoskeletal associated; 3, cytoskeletal; 4, ribosome/translation associated; 5, proteasome associated; 6, membrane or extracellular; ER, golgi, or vesicle associated; 8, lipid metabolism; 9, chaperones; 10, nuclear import or nuclear membrane associated. The proteins in category 1 were further investigated for interactions with DUX4.

[1] = LC-MS value per protein co-immunoprecipitated from MB135 myoblasts, + IFNG mix sample (no Dox), kind of count not given
[2] = LC-MS value per protein co-immunoprecipitated with DUX4-CTD construct mL1dL2 in MB135 myoblasts, + Dox + IFNG, kind of count not given
[3] = LC-MS counts of the listed protein co-immunoprecipitated with DUX4-CTD bait mL1dL2, experiment 4, Dox + IFNG
[4] = LC-MS counts of the listed protein in anti-FLAG co-IP, experiment 4, IFNG, no doxycycline, mix, MB135 myoblasts

Substance	4. mL1dL2 + Dox + IFNG [2]	4. longCTD + Dox + IFNG (experiment 4, Dox + IFNG)	3. + Dox longCTD	3. + IFNg + Dox longCTD	SUM of PSMS	other results
PLEC	16					4. + IFNG mix [1]: 3
P08670		55	42	45	290	3. + IFNG longCTD: 39
PSMD2	3					4. + IFNG mix [1]: 1
PPP2R1A	5					
P40763			1	3	5	
P08123			1		4	3. + IFNG longCTD: 1
EEF1G	1					
P11142		105	27	54	299	4. mL1dL2 + Dox + IFNG [3]: 90; 4. + IFNG mix [4]: 21; 3. + IFNG longCTD: 2
COL1A2						4. + IFNG mix [1]: 2
P30153		2	5	14	28	3. + IFNG longCTD: 2
P07900		10		9	30	4. mL1dL2 + Dox + IFNG [3]: 5; 4. + IFNG mix [4]: 6
P61978		6	2	8	31	
P07237		14	3	5	51	
P50990		3		2	6	4. mL1dL2 + Dox + IFNG [3]: 1
P78527		2	3	18	39	
DES	10					4. + IFNG mix [1]: 24
G3BP1	1					4. + IFNG mix [1]: 1
NES	1					4. + IFNG mix [1]: 6
P10644		3		4	11	4. mL1dL2 + Dox + IFNG [3]: 4
P08238		10	2	14	32	4. mL1dL2 + Dox + IFNG [3]: 6
TUBA1B	24					4. + IFNG mix [1]: 9
YBX3	7					
PTBP1	1					
USP9X	7					

Substance	4. mL1dL2 + Dox + IFNG [2]	4. longCTD + Dox + IFNG (experiment 4, Dox + IFNG)	3. + Dox longCTD	3. + IFNg + Dox longCTD	SUM of PSMS	other results
P49368		2		1	7	4. mL1dL2 + Dox + IFNG [3]: 4
P17661		12	9	15	84	3. + IFNG longCTD: 14
P68363			22		55	
HNRNPK	12					4. + IFNG mix [1]: 3
Q15208		6			11	3. + IFNG longCTD: 1
FLNA	4					4. + IFNG mix [1]: 3
CLTC	8					
P11940		3		13	21	
Q13200		4		3	11	
P68371		100	42	70	283	3. + IFNG longCTD: 11
P26641		1	3	6	11	
FLNC	2					4. + IFNG mix [1]: 1
XRCC5	1					
P21333		10	1	12	30	
VIM	43					4. + IFNG mix [1]: 66
P78371		4		1	7	4. mL1dL2 + Dox + IFNG [3]: 2
STAT3	1					
HNRNPU	1					
P02751			17	48	68	
NPM1	4					4. + IFNG mix [1]: 2
FN1						4. + IFNG mix [1]: 3
P16989			1	3	11	
Q13283		2	1	2	7	
P63010			8	26	35	
